Data published in ChEMBL document CHEMBL5303573, “Mapping human microbiome drug metabolism by gut bacteria and their genes” (Nature, 2019).

What was measured:
[1] = The drug is tested on Providencia rettgeri strain: DSM1131 for biotransformation. The drug concentrations were measured before and after a 12-h incubation by liquid-chromatography-coupled mass spectrometry (LC–MS); type: ADME; parameters: dose 2 uM, timepoint 0 vs 12 hours; conditions: 2 µM
[2] = The drug is tested on Bacteroides fragilis strain: HMW610 for biotransformation. The drug concentrations were measured before and after a 12-h incubation by liquid-chromatography-coupled mass spectrometry (LC–MS); conditions: 2 µM
[3] = The drug is tested on Clostridium asparagiforme strain: DSM15981 for biotransformation. The drug concentrations were measured before and after a 12-h incubation by liquid-chromatography-coupled mass spectrometry (LC–MS); type: ADME; parameters: dose 2 uM, timepoint 0 vs 12 hours; conditions: enterocloster asparagiformis, 2 µM
[4] = The drug is tested on Parabacteroides merdae strain: ATCC43184 for biotransformation. The drug concentrations were measured before and after a 12-h incubation by liquid-chromatography-coupled mass spectrometry (LC–MS); conditions: 2 µM
[5] = bacteroides fragilis, 12 h, 2 µM
Description: The drug is tested on Bacteroides fragilis strain: DS-208 for biotransformation. The drug concentrations were measured before and after a 12-h incubation by liquid-chromatography-coupled mass spectrometry (LC–MS)

[6] = bacteroides fragilis, 12 h, 2 µM; remark: listed apart in the source
Description: The drug is tested on Bacteroides fragilis strain: 3397 (T10) for biotransformation. The drug concentrations were measured before and after a 12-h incubation by liquid-chromatography-coupled mass spectrometry (LC–MS)

[7] = bacteroides eggerthii, 12 h, 2 µM
Description: The drug is tested on Bacteroides eggerthii strain: DSM20697 for biotransformation. The drug concentrations were measured before and after a 12-h incubation by liquid-chromatography-coupled mass spectrometry (LC–MS)

[8] = The drug is tested on Bacteroides caccae strain: ATCC43185 for biotransformation. The drug concentrations were measured before and after a 12-h incubation by liquid-chromatography-coupled mass spectrometry (LC–MS); conditions: 2 µM
[9] = The drug is tested on Anaerotruncus colihominis strain: DSM17241 for biotransformation. The drug concentrations were measured before and after a 12-h incubation by liquid-chromatography-coupled mass spectrometry (LC–MS); conditions: 2 µM
[10] = The drug is tested on Ruminococcus lactaris strain: ATCC29176 for biotransformation. The drug concentrations were measured before and after a 12-h incubation by liquid-chromatography-coupled mass spectrometry (LC–MS); conditions: 2 µM
[11] = The drug is tested on Clostridium sp. strain: fecal isolate for biotransformation. The drug concentrations were measured before and after a 12-h incubation by liquid-chromatography-coupled mass spectrometry (LC–MS); conditions: 2 µM
[12] = The drug is tested on Bacteroides fragilis strain: ATCC43859 for biotransformation. The drug concentrations were measured before and after a 12-h incubation by liquid-chromatography-coupled mass spectrometry (LC–MS); conditions: 2 µM
[13] = The drug is tested on Bacteroides coprophilus strain: DSM18228 for biotransformation. The drug concentrations were measured before and after a 12-h incubation by liquid-chromatography-coupled mass spectrometry (LC–MS); conditions: 2 µM
[14] = The drug is tested on Ruminococcus torques strain: ATCC27756 for biotransformation. The drug concentrations were measured before and after a 12-h incubation by liquid-chromatography-coupled mass spectrometry (LC–MS); type: ADME; parameters: dose 2 uM, timepoint 0 vs 12 hours; conditions: 2 µM
[15] = The drug is tested on Bacteroides pectinophilus strain: ATCC43243 for biotransformation. The drug concentrations were measured before and after a 12-h incubation by liquid-chromatography-coupled mass spectrometry (LC–MS); conditions: 2 µM
[16] = The drug is tested on Bifidobacterium longum subsp. Infantis strain: CCUG52486 for biotransformation. The drug concentrations were measured before and after a 12-h incubation by liquid-chromatography-coupled mass spectrometry (LC–MS); conditions: 2 µM
[17] = parabacteroides johnsonii, 12 h, 2 µM
Description: The drug is tested on Parabacteroides johnsonii strain: DSM18315 for biotransformation. The drug concentrations were measured before and after a 12-h incubation by liquid-chromatography-coupled mass spectrometry (LC–MS)

[18] = bacteroides thetaiotaomicron, 12 h, 2 µM
Description: The drug is tested on Bacteroides thetaiotaomicron strain: 7330 for biotransformation. The drug concentrations were measured before and after a 12-h incubation by liquid-chromatography-coupled mass spectrometry (LC–MS)

[19] = parabacteroides distasonis, 12 h, 2 µM
Description: The drug is tested on Parabacteroides distasonis strain: ATCC8503 for biotransformation. The drug concentrations were measured before and after a 12-h incubation by liquid-chromatography-coupled mass spectrometry (LC–MS)

[20] = The drug is tested on Bifidobacterium breve strain: DSM20213 for biotransformation. The drug concentrations were measured before and after a 12-h incubation by liquid-chromatography-coupled mass spectrometry (LC–MS); conditions: 2 µM

Compound | Bacterial Biotransformation [1] | Bacterial Biotransformation [2] | Bacterial Biotransformation [3] | Bacterial Biotransformation [4] | Bacterial Biotransformation [5] | Bacterial Biotransformation [6] | Bacterial Biotransformation [7] | Bacterial Biotransformation [8] | Bacterial Biotransformation [9] | Bacterial Biotransformation [10] | Bacterial Biotransformation [11] | Bacterial Biotransformation [12] | Bacterial Biotransformation [13] | Bacterial Biotransformation [14] | Bacterial Biotransformation [15] | Bacterial Biotransformation [16] | Bacterial Biotransformation [17] | Bacterial Biotransformation [18] | Bacterial Biotransformation [19] | Bacterial Biotransformation [20]
O=P(O)(O)O.c1ccc(CN(CC2=NCCN2)c2ccccc2)cc1 [ANTAZOLINE PHOSPHATE] | Compound NOT metabolized | Compound NOT metabolized | Compound NOT metabolized | Compound NOT metabolized | Compound NOT metabolized | Compound NOT metabolized | Compound NOT metabolized | Compound NOT metabolized | Compound NOT metabolized | Compound NOT metabolized | Compound NOT metabolized | Compound NOT metabolized | Compound NOT metabolized | Compound NOT metabolized | Compound NOT metabolized | Compound NOT metabolized | – | – | – | –
CC(=O)OCC(=O)[C@@]1(O)[C@@H](C)C[C@H]2[C@@H]3CCC4=CC(=O)C=C[C@]4(C)[C@@]3(F)[C@@H](O)C[C@@]21C [BETAMETHASONE ACETATE] | Compound NOT metabolized | – | Compound NOT metabolized | – | Compound metabolized | Compound metabolized | – | – | Compound NOT metabolized | – | Compound metabolized | Compound metabolized | Compound metabolized | – | Compound NOT metabolized | Compound NOT metabolized | Compound metabolized | Compound metabolized | – | –
CCc1cccc2c3c([nH]c12)C(CC)(CC(=O)O)OCC3 (stereo unspecified) [ETODOLAC] | Compound NOT metabolized | – | Compound NOT metabolized | Compound NOT metabolized | Compound metabolized | Compound NOT metabolized | Compound NOT metabolized | Compound NOT metabolized | Compound NOT metabolized | Compound NOT metabolized | Compound NOT metabolized | Compound metabolized | Compound NOT metabolized | Compound NOT metabolized | Compound NOT metabolized | Compound NOT metabolized | Compound NOT metabolized | Compound metabolized | Compound NOT metabolized | –
CC(C)c1nc(N(C)S(C)(=O)=O)nc(-c2ccc(F)cc2)c1/C=C/[C@@H](O)C[C@@H](O)CC(=O)[O-].CC(C)c1nc(N(C)S(C)(=O)=O)nc(-c2ccc(F)cc2)c1/C=C/[C@@H](O)C[C@@H](O)CC(=O)[O-].[Ca+2] [ROSUVASTATIN CALCIUM] | Compound NOT metabolized | – | Compound NOT metabolized | – | Compound NOT metabolized | Compound NOT metabolized | Compound NOT metabolized | – | Compound NOT metabolized | Compound NOT metabolized | Compound NOT metabolized | Compound NOT metabolized | Compound NOT metabolized | Compound NOT metabolized | Compound NOT metabolized | Compound NOT metabolized | – | Compound NOT metabolized | Compound NOT metabolized | Compound NOT metabolized
C=CC[C@@H]1/C=C(\C)C[C@H](C)C[C@H](OC)[C@H]2O[C@@](O)(C(=O)C(=O)N3CCCC[C@H]3C(=O)O[C@H](/C(C)=C/[C@@H]3CC[C@@H](O)[C@H](OC)C3)[C@H](C)[C@@H](O)CC1=O)[C@H](C)C[C@@H]2OC.O [TACROLIMUS] | Compound metabolized | – | Compound metabolized | Compound NOT metabolized | Compound NOT metabolized | Compound NOT metabolized | Compound metabolized | – | Compound metabolized | Compound metabolized | Compound metabolized | Compound NOT metabolized | Compound metabolized | Compound NOT metabolized | Compound NOT metabolized | Compound NOT metabolized | Compound metabolized | Compound NOT metabolized | Compound metabolized | Compound NOT metabolized
CN1C(C(=O)Nc2ccccn2)=C(O)c2sccc2S1(=O)=O [TENOXICAM] | – | Compound NOT metabolized | Compound NOT metabolized | Compound NOT metabolized | – | Compound NOT metabolized | Compound NOT metabolized | Compound NOT metabolized | – | Compound NOT metabolized | Compound NOT metabolized | Compound NOT metabolized | – | – | Compound NOT metabolized | Compound NOT metabolized | Compound NOT metabolized | Compound NOT metabolized | – | Compound NOT metabolized
OC(CCN1CCCCC1)(c1ccccc1)C1CCCCC1 (stereo unspecified) [TRIHEXYPHENIDYL] | – | Compound NOT metabolized | Compound NOT metabolized | – | Compound NOT metabolized | Compound NOT metabolized | – | Compound NOT metabolized | Compound NOT metabolized | Compound NOT metabolized | Compound metabolized | Compound NOT metabolized | – | – | Compound NOT metabolized | Compound NOT metabolized | Compound NOT metabolized | – | Compound NOT metabolized | Compound NOT metabolized
COc1cc(C(=O)NCc2ccc(OCCN(C)C)cc2)cc(OC)c1OC [TRIMETHOBENZAMIDE] | – | Compound NOT metabolized | Compound NOT metabolized | Compound NOT metabolized | Compound NOT metabolized | Compound NOT metabolized | Compound NOT metabolized | Compound NOT metabolized | Compound NOT metabolized | Compound NOT metabolized | Compound NOT metabolized | Compound NOT metabolized | Compound NOT metabolized | Compound NOT metabolized | Compound NOT metabolized | Compound NOT metabolized | Compound NOT metabolized | Compound NOT metabolized | Compound NOT metabolized | Compound NOT metabolized
CC(=O)CC(c1ccccc1)c1c(O)c2ccccc2oc1=O (stereo unspecified) [WARFARIN] | Compound NOT metabolized | – | Compound NOT metabolized | Compound NOT metabolized | Compound NOT metabolized | Compound NOT metabolized | Compound NOT metabolized | Compound NOT metabolized | Compound NOT metabolized | Compound NOT metabolized | Compound NOT metabolized | Compound metabolized | Compound NOT metabolized | Compound NOT metabolized | Compound NOT metabolized | Compound NOT metabolized | Compound NOT metabolized | Compound NOT metabolized | Compound NOT metabolized | Compound NOT metabolized
